Laboratory results taken from patent US6511979B1, “Methods for treating conditions modulated by lactosylceramide” (Johns Hopkins University, priority 1998, dated 2003).
“Also recorded” adds a separate entry of the source.

Key:
GlcT-1 = target: T1, GlcT-1 (Homo sapiens, UniProt Q16739); conditions: reported in literature; cited from earlier work
T1 sequence (Q16739 1-394): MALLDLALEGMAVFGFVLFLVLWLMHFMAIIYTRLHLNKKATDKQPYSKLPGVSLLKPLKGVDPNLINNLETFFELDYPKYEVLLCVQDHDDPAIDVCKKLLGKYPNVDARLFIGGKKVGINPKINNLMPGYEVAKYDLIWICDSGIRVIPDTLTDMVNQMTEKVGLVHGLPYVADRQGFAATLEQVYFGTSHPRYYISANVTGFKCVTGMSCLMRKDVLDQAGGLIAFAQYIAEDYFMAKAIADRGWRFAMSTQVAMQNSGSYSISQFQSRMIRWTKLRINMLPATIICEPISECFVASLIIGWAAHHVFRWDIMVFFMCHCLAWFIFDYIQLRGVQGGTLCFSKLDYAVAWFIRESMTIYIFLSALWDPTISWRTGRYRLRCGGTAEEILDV

vascular cells = conditions: reported in literature; cited from earlier work
LacCer-responsive cells [1] = assay: cell proliferation in LacCer-responsive cells; type: cell-based
Procedure: Preferably, the GalT-2 enhancing compound promotes cell proliferation by at least 10 to 25%, preferably at least about 50%, relative to a suitable control assay. In such an assay, between about 0.1 to 100 μM, preferably between about 1 to 50 μM of a desired GalT-2 enhancing compound is used. Exemplary cell proliferation assays include counting viable cells and monitoring activity of specified citric acid cycle enzymes such as lactate dehydrogenase. A preferred assay measures incorporation of one or more detectably-labeled nucleosides into DNA, e.g., by:
a) culturing suitable cells in medium and adding 1) a candidate GalT-2 enhancing compound and 2) a radiolabeled nucleoside such as ^3H-thymidine typically in an amount between about 0.1 to 100 μCi;
b) incubating the cells, e.g., for about 6-24 hours, and typically followed by washing; and
The measurement can be achieved by several methods including trichloroacetic acid (TCA) precipitation of labeled DNA on filters followed by scintillation counting. See e.g., Chatterjee, S., Biochem. Biophys. Res Comm. (1991) 181:554; Chatterjee, S. et al. (1982) Eur. J. Biochem. 120:435 for disclosure relating to this assay.
References herein to a “standard in vitro cell proliferation assay” or other similar phrase refer to an assay that includes the above steps a) through c). […]

GalT-2 = GalT-2 activity assay (standard in vitro GalT-2 assay / GalT-2 enzyme assay); type: cell-based
Excerpt: Preferred in vitro detection assays according to the present invention involve one or more steps associated with LacCer-related pathways. Such assays include the following steps 1) through 4):
1) culturing a population of LacCer-responsive cells with LacCer;
2) adding a known or candidate GalT-2 enhancing compound to the cells;
3) measuring activity of a cell molecule or function in the LacCer-related pathway; and
4) determining the effect of the known or candidate GalT-2 enhancing compound on the cell, e.g., by measuring activity of the cell molecule or function. Typically, the cell function will be one or more of cell proliferation, cell adhesion or expression of specified surface proteins on the cells. Examples of cell molecules include LacCer-responsive enzymes as specified below.
That assay can effectively measure the capacity of the GalT-2 enhancing compound to promote GalT-2 activity. References herein to a “standard in vitro GalT-2 assay” or other similar phrase refers to the above protocol of steps 1) through 4) when the specified cell molecule measured in step 3) above is GalT-2. As described in more detail below, other in vitro assays of the invention measure specified cell molecules in the LacCer-related steps or pathways. The in vitro assays of the present invention can be conducted with nearly any population of cells responsive to LacCer as provided below. […]

LacCer-responsive cells [2] = assay: cell adhesion in LacCer-responsive cells; type: cell-based
Procedure: Preferably, the GalT-2 enhancing compound increases cell adhesion by at least 25%, preferably at least 50% or more relative to a suitable control assay. In such an assay, between about 0.1 to 100 μM, preferably between about 1 to 50 μM of a desired GalT-2 enhancing compound is used. For example, a preferred cell adhesion assay includes the following steps:
a) labeling a first population of immune cells, preferably certain leukocytes, with a detectable label which can be a chromatic, radioactive, luminescent (e.g., fluorescent, or phosphorescent), or enzymatic label capable of producing a detectable label, […]
References herein to a “standard in vitro cell adhesion assay” or other similar phrase refer to an assay that includes the above steps a) through c). The detection in step c) can be achieved by a variety of methods such as microscopy (by manually counting cells), particularly confocal microscopy and fluorescence-based photomicroscopy involving FACS; automated cell sorting techniques, immunological methods such as ELISA and RIA; and scintillation counting. […]
A preferred in vitro cell adhesion assay measures polymorphonuclear leukocytes (PMNs and/or monocytes) or platelets and increased endothelial cell adhesion before, during or after contact with a desired GalT-2 enhancing compound. […] Adhering cells are then quantitated by standard methods such as by use of a fluorescence plate reader. […]

| SMILES | effect on GlcT-1 (GlcT-1) | effect on proliferation of vascular cells (vascular cells) | effect on proliferation in LacCer-responsive cells (LacCer-responsive cells [1]) | effect on GalT-2 activity (GalT-2) | effect on adhesion in LacCer-responsive cells (LacCer-responsive cells [2]) |
| --- | --- | --- | --- | --- | --- |
| CCCCCCCCCC(=O)NC(CN1CCOCC1)C(O)c1ccccc1 [D-PDMP, 1-phenyl-2-decanolylamino-3-morpholino-1-propanol] | inhibits GlcT-1 | reduces proliferation of vascular cells |  |  |  |
| CCCCCCCCCC(=O)N[C@@H](CN1CCOCC1)C(O)c1ccccc1 (stereo partly drawn) [L-PDMP, L-1-phenyl-2-decanoylamino-3-morpholino-1-propanol] |  |  | increasing proliferation | increase the activity of GalT-2; also recorded: effectively stimulating GalT-2 | increasing proliferation and adhesion |
